Laboratory results published in US20240101573A1, “MACROCYCLIC K-RAS G12C INHIBITOR, PREPARATION METHOD THEREFOR AND USE THEREOF” (Abbisko Therapeutics Co., Ltd., priority 2020, published 2024).

What was measured:
[1] = system: H358; experiment: Anti-proliferation 2D CTG test (H358); format: cell-based; conditions: H358 cells, 1500 cells/well, 5 days incubation with compound, CTG readout
Procedure: (§1) When the cell confluency was 80%, the cells were isolated with 0.25% trypsin. The isolated cells were resuspended in 5 mL of fresh cell culture medium and centrifuged to collect the cells. The number of cells were counted at the same time. Then, the cells were suspended in a culture medium at a moderate concentration. The cells were placed into a 96-well plate with 1500 cells/well for H358 and 500 cells/well for MIAPACA-2. The 96-well plate was placed in an incubator at 37° C. and incubated overnight.
(§2) 2) Day 1: processing of compound
(§3) A 2 mM stock solution was serially diluted at 10 points at a ratio of 1:3. 5× culture medium containing the compound was transferred to the corresponding wells of 96 wells. The final peak concentration of the compound was […], and the final concentration of DMSO was 0.5%. The 96-well plate was placed in the incubator at 37° C. and incubated for 5 days.
(§4) 3) Baseline reading. 4) Day 6: reading of signals
(§5) A detection reagent (CTG) was added at 50 μL/well, and the signals were read in an Envision instrument.
(§6) The percentage of inhibition ([…]) at each compound concentration was calculated based on the signals from the HPE and ZPE control wells contained in each assay plate and the fluorescence signals from individual compound wells. The inhibition rate in the ZPE control wells containing the enzyme and substrate was 0%, and the inhibition rate in the HPE control wells only containing the substrate was […]. By testing the compound in terms of numeric concentration and inhibition percentage, the compound concentration required for […] inhibition (IC50) was determined using a four-parameter logarithmic dose-response equation. The endpoint value (IC50) of the reference compound was evaluated in each experiment as a quality control measure. If the endpoint value was within three times the expected value, the experiment was considered acceptable.

[2] = system: MIA PaCa-2; experiment: Anti-proliferation 2D CTG test (MIA PaCa-2); format: cell-based; conditions: MIAPACA-2 cells, 500 cells/well, 5 days incubation with compound, CTG readout
Procedure: as §1, §2, §3, §4, §5, §6

[3] = Homo sapiens, MIA PaCa-2, 120 h

IC50 ([1]; Homo sapiens, NCI-H358, 120 h)	IC50 [2, 3]	IC50 [1]	IC50 [2]	Compound
12 nM	10 nM	–	–	C=CC(=O)N1CCN(c2nc(=O)n3c4nc(c(F)cc24)-c2c(F)cccc2OCC(OC(=O)OC(C)(C)C)C(OC(=O)OC(C)(C)C)c2ccnc(C(C)C)c2-3)[C@@H](C)C1 (stereo partly drawn) [Example 15, 2^4-((S)-4-acryloyl-2-methylpiperazin-1-yl)-2^6,3^6-difluoro-1^2-isopropyl-2^2-oxo-2^1,2^2-dihydro-4-oxa-2(1,7)-pyrido[2,3-d]pyrimidina-1(3,4)-pyridina-3(1,2)-benzocycloheptane-6,7-diyl di-tert-butyldi(carbonate)]
–	–	10 nM	7 nM	C=CC(=O)N1CCN(c2nc(=O)n3c4nc(c(F)cc24)-c2c(F)cccc2OCC(O)C(OCC(F)F)c2ccnc(C(C)C)c2-3)[C@@H](C)C1 (stereo partly drawn) [Example 51, (R)-2^4-((S)-4-acryloyl-2-methylpiperazin-1-yl)-7-(2,2-difluoroethoxy)-2^6,3^6-difluoro-6-hydroxy-1^2-isopropyl-2^1,2^2-dihydro-4-oxa-2(1,7)-pyrido[2,3-d]pyrimidina-1(3,4)-pyridina-3(1,2)-benzocycloheptane-2^2-one]
–	–	2 nM	2 nM	C=CC(=O)N1CCN(c2nc(=O)n3c4nc(c(F)cc24)-c2c(F)cccc2OCC(OCC)C(O)c2ccnc(C(C)C)c2-3)[C@@H](C)C1 (stereo partly drawn) [Example 45, (R)-2^4-((S)-4-acryloyl-2-methylpiperazin-1-yl)-6-ethoxy-2^6,3^6-difluoro-7-hydroxy-1^2-isopropyl-2^1,2^2-dihydro-4-oxa-2(1,7)-pyrido[2,3-d]pyrimidina-1(3,4)-pyridina-3(1,2)-benzocycloheptane-2^2-one]
–	–	5 nM	6 nM	C=CC(=O)N1CCN(c2nc(=O)n3c4nc(c(F)cc24)-c2c(F)cccc2OCC(O)C(OCC)c2ccnc(C(C)C)c2-3)[C@@H](C)C1 (stereo partly drawn) [Example 43, (R)-2^4-((S)-4-acryloyl-2-methylpiperazin-1-yl)-7-ethoxy-2^6,3^6-difluoro-6-hydroxy-1^2-isopropyl-2^1,2^2-dihydro-4-oxa-2(1,7)-pyrido[2,3-d]pyrimidina-1(3,4)-pyridina-3(1,2)-benzocycloheptane-2^2-one]
29 nM	20 nM	–	–	C=CC(=O)N1CCN(c2nc(=O)n3c4nc(c(F)cc24)-c2c(F)cccc2OCCC(OC(C)=O)c2ccnc(C(C)C)c2-3)[C@@H](C)C1 (stereo partly drawn) [Example 16, 2^4-((S)-4-acryloyl-2-methylpiperazin-1-yl)-2^6,3^6-difluoro-1^2-isopropyl-2^2-oxo-2^1,2^2-dihydro-4-oxa-2(1,7)-pyrido[2,3-d]pyrimidina-1(3,4)-pyridina-3(1,2)-benzocycloheptane-7-yl acetate]
–	–	4 nM	7 nM	C=CC(=O)N1CCN(c2nc(=O)n3c4nc(c(F)cc24)-c2c(F)cccc2OCC(OC(C)C)C(O)c2ccnc(C(C)C)c2-3)[C@@H](C)C1 (stereo partly drawn) [Example 34, 2^4-((S)-4-acryloyl-2-methylpiperazin-1-yl)-6-isopropoxy-2^6,3^6-difluoro-7-hydroxy-1^2-isopropyl-2^1,2^2-dihydro-4-oxa-2(1,7)-pyrido[2,3-d]pyrimidina-1(3,4)-pyridina-3(1,2)-benzocycloheptane-2^2-one]
–	–	931 nM	100 nM	C=CC(=O)N1CCN(c2nc(=O)n3c4nc(c(F)cc24)-c2c(F)cccc2OCC(O)C(O)c2ccnc(C(C)C)c2-3)[C@@H](C)C1 (stereo partly drawn) [Example 1-S, (S)-2^4-((S)-4-acryloyl-2-methylpiperazin-1-yl)-2^6,3^6-difluoro-6,7-dihydroxy-1^2-isopropyl-2^1,2^2-dihydro-4-oxa-2(1,7)-pyrido[2,3-d]pyrimidina-1(3,4)-pyridina-3(1,2)-benzocycloheptane-2^2-one]
1 nM	1 nM	–	–	C=CC(=O)N1C[C@H](C)N(c2nc(=O)n3c4nc(c(F)cc24)-c2c(F)cccc2OCC(OCC)C(O)c2ccnc(C(C)C)c2-3)C[C@H]1C (stereo partly drawn) [Example 36, (R)-2^4-((2S,5R)-4-acryloyl-2,5-dimethylpiperazin-1-yl)-6-ethoxy-2^6,3^6-difluoro-7-hydroxy-1^2-isopropyl-2^1,2^2-dihydro-4-oxa-2(1,7)-pyrido[2,3-d]pyrimidina-1(3,4)-pyridina-3(1,2)-benzocycloheptane-2^2-one]
–	–	3 nM	1 nM	11-((S)-4-acryloyl-2-methylpiperazin-1-yl)-2-((dimethylamino)methyl)-15,21-difluoro-7-isopropyl-3a,20a-dihydro-9H,20H-12,14-(epiethane[1,2]diylidene)benzo[b][1,3]dioxazolo[4,5-j]pyri do[3,4-h]pyrimido[6,1-f][1]oxa[5,7]diazacyclododecin-9-one [Example 64]
–	–	461 nM	314 nM	C=CC(=O)N1C[C@H](C)N(c2nc(=O)n3c4nc(c(F)cc24)-c2c(F)cccc2OCC(O)C(OCC)c2ccnc(C(C)C)c2-3)C[C@H]1C (stereo partly drawn) [Example 58, (S)-2^4-((2S,5R)-4-acryloyl-2,5-dimethylpiperazin-1-yl)-7-ethoxy-2^6,3^6-difluoro-6-hydroxy-1^2-isopropyl-2^1,2^2-dihydro-4-oxa-2(1,7)-pyrido[2,3-d]pyrimidina-1(3,4)-pyridina-3(1,2)-benzocycloheptane-2^2-one]
8 nM	11 nM	–	–	C=CC(=O)N1CCN(c2nc(=O)n3c4nc(c(F)cc24)-c2c(F)cccc2OCCCc2ccnc(C(C)C)c2-3)[C@@H](C)C1 [Positive compound, reference compound]
–	–	13 nM	10 nM	C=CC(=O)N1CCN(c2nc(=O)n3c4nc(c(F)cc24)-c2c(F)cccc2OCC(O)C(O)c2ccnc(C(C)C)c2-3)[C@@H](C)C1 (stereo partly drawn) [Example 1, 2^4-((S)-4-acryloyl-2-methylpiperazin-1-yl)-2^6,3^6-difluoro-6,7-dihydroxy-1^2-isopropyl-2^1,2^2-dihydro-4-oxa-2(1,7)-pyrido[2,3-d]pyrimidina-1(3,4)-pyridina-3(1,2)-benzocycloheptane-2^2-one]
5 nM	5 nM	–	–	C=CC(=O)N1CCN(c2nc(=O)n3c4nc(c(F)cc24)-c2c(F)cccc2OCC(OC(=O)C(C)C)C(OC(=O)C(C)C)c2ccnc(C(C)C)c2-3)[C@@H](C)C1 (stereo partly drawn) [Example 13, 2^4-((S)-4-acryloyl-2-methylpiperazin-1-yl)-2^6,3^6-difluoro-1^2-isopropyl-2^2-oxo-2^1,2^2-dihydro-4-oxa-2(1,7)-pyrido[2,3-d]pyrimidina-1(3,4)-pyridina-3(1,2)-benzocycloheptane-6,7-diyl di(2-methylpropionate)]
–	–	830 nM	708 nM	C=CC(=O)N1CCN(c2nc(=O)n3c4nc(c(F)cc24)-c2c(F)cccc2OCC(OCC(F)F)C(O)c2ccnc(C(C)C)c2-3)[C@@H](C)C1 (stereo partly drawn) [Example 54, (S)-2^4-((S)-4-acryloyl-2-methylpiperazin-1-yl)-6-(2,2-difluoroethoxy)-2^6,3^6-difluoro-7-hydroxy-1^2-isopropyl-2^1,2^2-dihydro-4-oxa-2(1,7)-pyrido[2,3-d]pyrimidina-1(3,4)-pyridina-3(1,2)-benzocycloheptane-2^2-one]
–	–	250 nM	125 nM	C=CC(=O)N1CCN(c2nc(=O)n3c4nc(c(F)cc24)-c2c(F)cccc2OCC(O)C(OCC)c2ccnc(C(C)C)c2-3)[C@@H](C)C1 (stereo partly drawn) [Example 44, (S)-2^4-((S)-4-acryloyl-2-methylpiperazin-1-yl)-7-ethoxy-2^6,3^6-difluoro-6-hydroxy-1^2-isopropyl-2^1,2^2-dihydro-4-oxa-2(1,7)-pyrido[2,3-d]pyrimidina-1(3,4)-pyridina-3(1,2)-benzocycloheptane-2^2-one]
